The results in this text go back to patent US9346761B2, “Arginine methyltransferase inhibitors and uses thereof” (Epizyme, Inc., priority 2013, dated 2016).

Experiment [1] deals with T1, Human CARM1 (PRMT4) (Homo sapiens, UniProt Q86X55).
T1 construct: Flag-CARM1-His was eluted with 200 ug/ml FLAG peptide in buffer A; made in house; host or cells: HEK 293F cells (BacMam virus, pFastBacMam)
T1 sequence (Q86X55 with tags, fused parts or gaps isoform Q86X55-1): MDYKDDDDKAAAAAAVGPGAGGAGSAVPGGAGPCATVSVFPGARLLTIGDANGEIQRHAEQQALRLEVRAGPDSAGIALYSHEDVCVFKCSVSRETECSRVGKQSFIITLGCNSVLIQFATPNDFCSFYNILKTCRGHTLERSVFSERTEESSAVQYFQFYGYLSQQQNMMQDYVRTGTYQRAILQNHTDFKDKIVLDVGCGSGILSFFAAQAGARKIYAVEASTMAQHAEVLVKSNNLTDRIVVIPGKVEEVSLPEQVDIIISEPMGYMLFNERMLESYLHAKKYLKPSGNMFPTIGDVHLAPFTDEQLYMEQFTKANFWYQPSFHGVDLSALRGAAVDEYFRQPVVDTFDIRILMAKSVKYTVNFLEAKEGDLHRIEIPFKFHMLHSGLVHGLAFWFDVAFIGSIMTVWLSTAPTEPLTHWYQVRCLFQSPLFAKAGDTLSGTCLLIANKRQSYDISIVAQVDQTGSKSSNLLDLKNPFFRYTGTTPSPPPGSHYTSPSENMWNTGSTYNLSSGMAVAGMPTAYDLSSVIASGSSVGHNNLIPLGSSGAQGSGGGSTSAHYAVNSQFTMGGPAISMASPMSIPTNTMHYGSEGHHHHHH
The experiment is described as follows: CARM1 biochemical assay (3H-SAM Flashplate, peptide substrate). From the text:
General Materials. S-adenosylmethionine (SAM), S-adenosylhomocysteine (SAH), bicine, Tween20, dimethylsulfoxide (DMSO), bovine skin gelatin (BSG), sodium butyrate and Tris(2-carboxyethyl)phosphine hydrochloride solution (TCEP) were purchased from Sigma-Aldrich at the highest level of purity possible. ^3H-SAM was purchase from American Radiolabeled Chemicals with a specific activity of 80 Ci/mmol. 384-well streptavidin Flashplates were purchased from PerkinElmer.
Substrates. Peptide representative of human histone H3 residues 16-30 was synthesized with an N-terminal linker-affinity tag motif and a C-terminal amide cap by 21st Century Biochemicals.
Protein Expression. Recombinant baculovirus were generated according to Bac-to-Bac kit instructions (Life Technologies). […] Infections were carried out at 37° C. for 48 hours, harvested by centrifugation, and stored at −80° C. for purification.
Protein Purification. […] Column was washed with 500 mM NaCl in buffer A and Flag-CARM1-His was eluted with 200 ug/ml FLAG peptide in buffer A. Pooled fractions were dialyzed in 20 mM Tris, 150 mM NaCl, 5% glycerol and 1 mM DTT, pH 7.8.
General Procedure for CARM1 Enzyme Assays on Peptide Substrates. The assays were all performed in a buffer consisting of 20 mM Bicine (pH=7.6), 1 mM TCEP, 0.005% BSG, and 0.002% Tween 20, prepared on the day of use. […] DMSO (1 ul) was added to Columns 11, 12, 23, 24, rows A-H for the maximum signal control and 1 ul of SAH, a known product and inhibitor of CARM1, was added to columns 11, 12, 23, 24, rows I-P for the minimum signal control. A cocktail (40 ul) containing the CARM1 enzyme was added by Multidrop Combi (Thermo-Fisher). The compounds were allowed to incubate with CARM1 for 30 min at room temperature, then a cocktail (10 ul) containing ^3H-SAM and peptide was added to initiate the reaction (final volume=51 ul). […] The assays were stopped by the addition of non-radiolabeled SAM (10 ul) to a final concentration of 300 uM, which dilutes the ^3H-SAM to a level where its incorporation into the peptide substrate is no longer detectable. 50 ul of the reaction in the 384-well polypropylene plate was then transferred to a 384-well Flashplate and the biotinylated peptides were allowed to bind to the streptavidin surface for at least 1 hour before being washed once with 0.1% Tween20 in a Biotek ELx405 plate washer. The plates were then read in a PerkinElmer TopCount plate reader to measure the quantity of ^3H-labeled peptide bound to the Flashplate surface, measured as disintegrations per minute (dpm) or alternatively, referred to as counts per minute (cpm).
Where dpm=disintegrations per minute, cmpd=signal in assay well, and min and max are the respective minimum and maximum signal controls.
Where top and bottom are the normally allowed to float, but may be fixed at 100 or 0 respectively in a 3-parameter fit. The Hill Coefficient normally allowed to float but may also be fixed at 1 in a 3-parameter fit. Y is the % inhibition and X is the compound concentration.

Experiment [2] concerns the target T2, Full-length human PRMT1 isoform 1 (Homo sapiens, UniProt Q99873).
T2 construct: GST-tagged PRMT1; made in house; host or cells: High Five insect cells (baculovirus, pFastBacI)
As to the kind of experiment: PRMT1 biochemical assay (3H-SAM Flashplate, peptide substrate). The essentials:
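Tritiated methyl transfer from 3H-SAM onto biotinylated peptide, captured on streptavidin Flashplates and counted. Baculovirus-expressed GST-PRMT1 and compound were preincubated 30 min at room temperature in Bicine buffer pH 7.6. Cold SAM at 300 uM final ended the reaction.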

T2 sequence (Q99873 with tags, fused parts or gaps): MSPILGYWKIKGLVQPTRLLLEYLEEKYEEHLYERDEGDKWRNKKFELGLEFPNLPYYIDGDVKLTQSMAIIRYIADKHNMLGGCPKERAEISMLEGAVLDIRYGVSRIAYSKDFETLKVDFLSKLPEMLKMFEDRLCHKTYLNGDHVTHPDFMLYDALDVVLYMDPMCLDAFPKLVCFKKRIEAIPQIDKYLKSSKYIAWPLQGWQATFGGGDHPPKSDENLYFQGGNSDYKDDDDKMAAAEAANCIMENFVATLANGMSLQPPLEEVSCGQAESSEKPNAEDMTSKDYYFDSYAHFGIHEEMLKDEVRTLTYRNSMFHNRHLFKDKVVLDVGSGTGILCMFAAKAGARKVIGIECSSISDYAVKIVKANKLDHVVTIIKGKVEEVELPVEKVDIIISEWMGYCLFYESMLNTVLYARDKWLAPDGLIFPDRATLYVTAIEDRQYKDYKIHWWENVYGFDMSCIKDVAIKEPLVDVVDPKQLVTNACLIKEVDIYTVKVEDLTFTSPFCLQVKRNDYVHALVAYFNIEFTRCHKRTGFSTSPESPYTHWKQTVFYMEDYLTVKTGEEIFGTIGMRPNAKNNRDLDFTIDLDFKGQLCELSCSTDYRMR

The IC50 is the concentration at which inhibition is half-maximal. Lower therefore signals greater potency. Turning to `CN(CCN)Cc1n[nH]cc1-c1ccc(OC(F)(F)F)cc1` [Compound 105], the concentration for half-maximal inhibition (IC50) is 3.01 to 10 µM in experiment [1] and below 0.1 µM in experiment [2].
The corresponding values for `CN(CCN)Cc1c[nH]nc1-c1ccc(Cl)c(F)c1` [Compound 118] are 0.101 to 1 µM and below 0.1 µM.
Take `COc1ccc(F)cc1-c1n[nH]cc1CN(C)CCN` [Compound 160]: the IC50 is above 10 µM in experiment [1] and 0.101 to 1 µM in experiment [2].
`CCn1ncc(CN(C)CCNC)c1-c1ccc(F)cc1` [Compound 7]: the values for the IC50 in experiment [1] and in experiment [2] were 1.01 to 3 µM and 0.101 to 1 µM, respectively.
`CC(C)Oc1ccc(-c2c[nH]nc2CN(C)CCN)cc1F` [Compound 144]: the IC50 was 3.01 to 10 µM in experiment [1] and below 0.1 µM in experiment [2].
As for `Cc1cccc(-c2n[nH]cc2CN(C)CCN)c1` [Compound 131], the IC50 is 1.01 to 3 µM in experiment [1] and below 0.1 µM in experiment [2].
With `CC(C)Oc1ccc(-c2n[nH]cc2CN(C)CCN)cc1F` [Compound 97], the half-maximal inhibitory concentration (IC50) in experiment [1] was 0.101 to 1 µM; in experiment [2] it was below 0.1 µM.
For `CN(CCN)Cc1c[nH]nc1-c1ccc(C(F)(F)F)c(Cl)c1` [Compound 117] the same measures were 0.101 to 1 µM and below 0.1 µM.
Consider `CN(CCN)Cc1c[nH]nc1-c1cccc(Cl)c1` [Compound 122], for which the IC50 in experiment [1] is 0.101 to 1 µM; in experiment [2], below 0.1 µM.
On to `Cc1ccc(F)cc1-c1n[nH]cc1CN(C)CCN` [Compound 159], for which the values for the half-maximal inhibitory concentration (IC50) in experiment [1] and in experiment [2] were above 10 µM and below 0.1 µM, respectively.
The corresponding values for `CN(CCN)Cc1c[nH]nc1-c1ccc(OC2CC2)cc1` [Compound 114] are 0.101 to 1 µM and below 0.1 µM.
For `COc1ccc(-c2n[nH]cc2CN(C)CCN)c(C)c1` [Compound 155] the same measures were above 10 µM and below 0.1 µM.
In the case of `CCOc1ccc(-c2n[nH]cc2CN(C)CCN)cc1` [Compound 166], the IC50 in experiment [2] was below 0.1 µM.
As for `COCCn1cc(CN(C)CCN)c(-c2ccc(F)cc2)n1` [Compound 5], the IC50 in experiment [1] was above 10 µM; in experiment [2], 1.01 to 3 µM.
As to `CN(CCN)Cc1n[nH]cc1-c1ccc(OC(F)F)cc1` [Compound 138], the IC50 in experiment [1] was 1.01 to 3 µM; in experiment [2], below 0.1 µM.
Take `COc1ccc(-c2n[nH]cc2CN(C)CCN)c(C(F)(F)F)c1` [Compound 154]: the IC50 in experiment [1] was above 10 µM; in experiment [2], 0.101 to 1 µM.
As to `CN(CCN)Cc1c[nH]nc1-c1cc(F)cc(F)c1` [Compound 111], the results for the IC50 in experiment [1] and in experiment [2] were 0.101 to 1 µM and below 0.1 µM, respectively.
Regarding `CN(CCN)Cc1c[nH]nc1-c1ccc(F)c(Cl)c1` [Compound 124], the figures for the IC50 in experiment [1] and in experiment [2] were 0.101 to 1 µM and below 0.1 µM, respectively.
In experiment [2], `CC(C)Cc1ccc(-c2c[nH]nc2CN(C)CCN)cc1` [Compound 170] yielded an IC50 below 0.1 µM.
`CN(CCN)Cc1c[nH]nc1-c1cc(F)ccc1Cl` [Compound 106]: the figures for the IC50 in experiment [1] and in experiment [2] were above 10 µM and 0.101 to 1 µM, respectively.
In turn, `CCN(C)C(=O)c1ccc(-c2n[nH]cc2CN(C)CCN)cc1` [Compound 163] displayed an IC50 in experiment [2] of 0.101 to 1 µM.
`CN(CCN)Cc1c[nH]nc1-c1ccc(C(F)(F)F)cc1Cl` [Compound 135]: the IC50 in experiment [1] was above 10 µM; in experiment [2], below 0.1 µM.
The corresponding values for `CN(CCN)Cc1c[nH]nc1-c1ccc(Cl)cc1` [Compound 95] are 0.101 to 1 µM and below 0.1 µM.
For the compound `CN(CCN)Cc1n[nH]cc1-c1ccc(C2CC2)cc1` [Compound 104], the IC50 was 1.01 to 3 µM in experiment [1] and below 0.1 µM in experiment [2].
On to `Cc1cc(Cl)ccc1-c1n[nH]cc1CN(C)CCN` [Compound 133], for which the IC50 was 3.01 to 10 µM in experiment [1] and below 0.1 µM in experiment [2].
For `Cc1cc(C#N)ccc1-c1n[nH]cc1CN(C)CCN` [Compound 110] the same measures were 3.01 to 10 µM and below 0.1 µM.
For the compound `Cc1[nH]nc(-c2ccc(F)cc2)c1CN(C)CCN` [Compound 169], the IC50 in experiment [2] lay in the range of 0.101 to 1 µM.
Still for that read-out and setting: the same measure for `CC(C)CN(C)C(=O)c1ccc(-c2n[nH]cc2CN(C)CCN)cc1` [Compound 164]: 0.101 to 1 µM.
Turning to `COc1ccc(Cl)cc1-c1n[nH]cc1CN(C)CCN` [Compound 157], the values for the IC50 in experiment [1] and in experiment [2] were above 10 µM and 1.01 to 3 µM, respectively.
The corresponding values for `Cc1ccccc1-c1n[nH]cc1CN(C)CCN` [Compound 161] are 3.01 to 10 µM and 0.101 to 1 µM.
The corresponding values for `COCCn1ncc(CN(C)CCN)c1-c1ccc(F)cc1` [Compound 6] are above 10 µM and 3.01 to 10 µM.
The corresponding values for `CN(CCN1CCCC1)Cc1c[nH]nc1-c1ccc(C#N)cc1` [Compound 139] are above 10 µM and above 10 µM.
In the case of `CC(=O)c1cccc(-c2n[nH]cc2CN(C)CCN)c1` [Compound 112], the IC50 in experiment [1] is 1.01 to 3 µM; in experiment [2] it was below 0.1 µM.
Regarding `COc1cc(F)ccc1-c1n[nH]cc1CN(C)CCN` [Compound 151], the IC50 in experiment [1] fell in the range of 3.01 to 10 µM; in experiment [2] it was 0.101 to 1 µM.
The corresponding values for `CN(CCN)Cc1n[nH]cc1-c1ccc(C2CCOCC2)cc1` [Compound 145] are 3.01 to 10 µM and below 0.1 µM.
The corresponding values for `COc1ccc(-c2n[nH]cc2CN(C)CCN)cc1` [Compound 153] are 1.01 to 3 µM and below 0.1 µM.
As to `COc1ccc(-c2n[nH]cc2CN(C)CCN)c(F)c1` [Compound 107], the IC50 in experiment [1] is 1.01 to 3 µM; in experiment [2], below 0.1 µM.
The corresponding values for `COc1ccc(-c2n[nH]cc2CN(C)CCN)cc1F` [Compound 134] are 1.01 to 3 µM and below 0.1 µM.
On to `COc1ccc(-c2n[nH]cc2CN(C)CCN)c(Cl)c1` [Compound 146], for which the IC50 in experiment [1] was 3.01 to 10 µM; in experiment [2], below 0.1 µM.
Turning to `CN(CCN)Cc1c[nH]nc1-c1ccc(OCC(F)(F)F)cc1` [Compound 96], the IC50 in experiment [1] and in experiment [2] was below 0.1 µM each time.
As for `CN(CCN)Cc1n[nH]cc1-c1ccc(Cl)cc1` [Compound 102], the results for the IC50 in experiment [1] and in experiment [2] were 1.01 to 3 µM and below 0.1 µM, respectively.
For `Cc1ccc(-c2n[nH]cc2CN(C)CCN)cc1` [Compound 162] the same measures were 0.101 to 1 µM and below 0.1 µM.
As for `Cc1cc(F)ccc1-c1n[nH]cc1CN(C)CCN` [Compound 152], the values for the half-inhibitory concentration (IC50) in experiment [1] and in experiment [2] were 3.01 to 10 µM and below 0.1 µM, respectively.
As for `CCn1cc(CN(C)CCNC)c(-c2ccc(F)cc2)n1` [Compound 8], the half-maximal inhibitory concentration (IC50) in experiment [1] was in the range of 3.01 to 10 µM; in experiment [2] it was 1.01 to 3 µM.
Compound `CN(CCN)Cc1c[nH]nc1-c1ccc2c(c1)NC(=O)CO2` [Compound 173] came in with an IC50 in experiment [2] of 0.101 to 1 µM.
Turning to `COCCOc1ccc(-c2n[nH]cc2CN(C)CCN)cc1` [Compound 167], the IC50 in experiment [2] is below 0.1 µM.
On the same count and under the same terms, the same measure for `CN(CCN)Cc1c[nH]nc1-c1ccc(OCCN2CCOCC2)cc1` [Compound 172]: 0.101 to 1 µM; for `NCCN(CCO)Cc1c[nH]nc1-c1ccc(F)cc1` [Compound 171]: 0.101 to 1 µM.
